Experimental data from patent publication US11957671B2, “Benzodioxane modulators of leukotriene A4 hydrolase (LTA4H) for prevention and treatment of aging-associated diseases” (Alkahest, Inc., priority 2021, dated 2024).

Tests used:
[1] = tested on: aged wild type (WT; C57BL/6) mice; experiment: Radial Arm Water Maze (RAWM); type: in vivo, mouse; details: 10 mg/kg PO daily, after 29 days of treatment
Description: The water maze (see, e.g. Alamed J, et al., Two-day radial-arm water maze learning and memory tasks; robust resolution of amyloid-related memory deficits in transgenic mice, Nat. Protoc., 1(4):1671-79 (2006)), was filled with water at least 24 hours prior to the test to equilibrate to 25° C. The water was dyed with white latex paint to make the animals visible for tracking and to allow for the use of a hidden platform. Eight distinct visual cues were placed at the end of each of eight arms of the RAWM inserts. On day 1 animals were subjected to 5 trials each with a visible platform and a 30-minute inter-trial interval. Animals had 60 seconds to reach the platform. […] The goal arm remained constant, and a different start arm was randomly assigned for each of the 5 trials so that mouse started in every arm once except for the two arms directly across from the platform. The goal arm was switched after every two mice and balanced between all treatment groups. After each trial the mice were placed in an empty cage with blue pads and allowed to dry off under a heat lamp before being placed back into their home cage. Testing day was 48 hours after training, when animals were subjected to the same test of 5 trials each and a 30-minute inter-trial interval, but with a hidden platform. Animals were scored for the number of errors (entry into a non-goal arm) and for latency to reach the platform. All trials were recorded using ANY-maze software.
Three independent cohorts of aged wild type (WT; C57BL/6) mice between twenty to twenty-two months of age (20-22 mo) were homogenized into two (2) groups by body weight, total distance travelled in the open field test, and average velocity in the open field test. Group 1 was administered vehicle control PO daily. Group 2 was administered 10 mg/kg of the LTA4H inhibitor Compound 1 PO daily. Both groups were dosed for either 10 days or 4 weeks daily. Behavioral assays were run during the last week of dosing and animals were sacrificed at the end of the study for histological and molecular assays.

[2] = tested on: Male C57BL/6 mice aged 20-21 months; experiment: Cortical brain lysate Cardiovascular Disease Panel (Luminex); type: in vivo, mouse; details: 10 mg/kg po one month
Description: Male C57BL/6 mice aged 20-21 months were treated with Vehicle or 10 mg/kg Compound 1 LTA4H inhibitor po for one month. Mice were anesthetized and perfused with saline. Brain tissue was collected, and sub dissected into cortex and hippocampus. Cortex samples were lysed in RIPA buffer and the soluble supernatant fraction was sent to Eve Technologies for analysis on the Cardiovascular Disease Panel using Luminex technology.

aged mice = experiment: LPS model of blood-brain-barrier (BBB) leakiness; type: in vivo, mouse
Description: FIGS. 63-66 report the results of an in vivo model of blood-brain-barrier (BBB) leakiness. Aged mice were treated for 4 weeks with vehicle or Compound 1 followed by an acute high dose of LPS was used to induce BBB breakdown. Sodium fluorescein was injected by tail vein and leakiness of sodium fluorescein into the brain was measured using a fluorescent plate reader. FIG. 63 reports that LPS induced BBB breakdown in young and aged mice. […] (n=69, 57)). FIG. 65 reports the GFAP intensity across a 60 micron (μm) long line drawn across the large descending vessels of the CA1 hippocampus after 4 weeks of dosing with vehicle or Compound 1 followed by a high dose LPS to induced BBB breakdown. (Mixed effects analysis with repeated measures. (n=69, 57)). FIG. 66 reports the results of in vivo target engagement assays with Compound 1 in mouse plasma. Whole blood from mice dosed with Compound 1 for 4 weeks followed by high dose LPS was incubated with a calcium ionophore to stimulate LTB4 release. Plasma was generated and LTB4 levels were measured using ELISA. LTB4 is the product of LTA4H hydrolysis so this assay reports on LTA4H enzymatic activity. […] (Kruskal-Wallis test with Dunn's multiple comparisons with post-hoc Mann-Whitney test. ****p<0.0001 (n=8, 9, 8, 9)).

[3] = Pharmacokinetic Measurement of Compound 1 (LC-MS/MS); type: in vivo, mouse; details: C57BL/6 mice
From the text: The mice are subjected to cardiac puncture and blood samples were collected using syringes pre-filled with K2EDTA or heparin. […] Hemi-brain tissue was homogenized with 3× volumes of ice-cold water, then further diluted 2× with blank mouse plasma prior to analysis. […]

LTA4H hydrolase activity = LTA4H hydrolase activity (Mus musculus (Mouse), UniProt P24527); experiment: Pharmacodynamic analysis of plasma LTB4 after a single dose; type: in vivo
Chain of LTA4H hydrolase activity (P24527 whole entry): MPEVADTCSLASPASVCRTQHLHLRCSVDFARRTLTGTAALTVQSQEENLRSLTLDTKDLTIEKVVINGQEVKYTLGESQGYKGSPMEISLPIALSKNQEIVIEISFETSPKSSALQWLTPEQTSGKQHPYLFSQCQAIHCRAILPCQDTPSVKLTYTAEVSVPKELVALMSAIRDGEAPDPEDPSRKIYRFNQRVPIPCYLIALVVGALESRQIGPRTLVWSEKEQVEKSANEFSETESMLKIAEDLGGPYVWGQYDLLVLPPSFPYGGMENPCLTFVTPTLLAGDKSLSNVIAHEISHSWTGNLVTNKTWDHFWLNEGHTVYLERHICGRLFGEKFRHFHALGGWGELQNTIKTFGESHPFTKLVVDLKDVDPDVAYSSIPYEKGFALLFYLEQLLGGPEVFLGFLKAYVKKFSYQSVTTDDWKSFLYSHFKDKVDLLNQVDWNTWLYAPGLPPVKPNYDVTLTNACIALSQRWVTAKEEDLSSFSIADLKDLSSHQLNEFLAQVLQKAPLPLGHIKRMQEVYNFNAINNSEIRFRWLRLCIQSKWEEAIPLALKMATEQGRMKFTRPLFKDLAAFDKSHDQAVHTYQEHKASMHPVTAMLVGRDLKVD
Description: Whole blood was collected by cardiac puncture using heparin as an anti-coagulant. 160 μL of whole blood was collected in duplicate for each mouse and incubated for 15 minutes in 37° C./5% CO2. During this time a 0.1 mM calcimycin stock was made by diluting 10 mM calcimycin (Sigma C7522) formulated in DMSO into PBS. Control solution was made by diluting the same volume of DMSO in PBS. Both solutions were sonicated for 10 minutes in a 37° C. water bath. 40 μL of 0.1 mM calcimycin (stimulated) or control solution (unstimulated) was added to each well of whole blood and incubated at 37° C./5% CO2 for 30 minutes. Whole blood was spun for 10 minutes at 1000×g to separate out plasma. LTB4 levels were detected by running an ELISA on the collected stimulated and unstimulated plasma diluted 1:10 (Enzo Life Sciences, ADI-901-068). The ELISA plates were read on a BMG LABTECH CLARIOstar plate reader at 405 nm.

[4] = single oral gavage dose 10, 1, 0.3, 0.1 mg/kg

brain penetration ([3]; single oral dose): brain penetrant, even at low doses
Compound: O=C(O)C1CCN(Cc2ccc([C@H]3COc4ccccc4O3)cc2)CC1 [Example 1, 1-{4-[(2S)-2,3-dihydro-1,4-benzodioxin-2-yl]benzyl}piperidine-4-carboxylic acid]
average number of errors during the last trial [1]: significant decreased in number of errors
latency to find the hidden platform, last trial [1]: trend towards a reduction in time to find the platform
number of errors during the training and testing phases [1]: small, but significant improvement in number of errors
cortical MMP9 protein [2]: trending reduction in cortical MMP9 protein
cortical Pecam-1 protein [2]: trending reduction in cortical Pecam-1 protein
LTB4 levels in calcimycin stimulated plasma (aged mice; 4 weeks of dosing followed by LPS): trending reduction
AQP4 intensity across large descending vessels of CA1 hippocampus (aged mice; 4 weeks of dosing then high dose LPS): trending reduction in AQP4 intensity
LTB4 levels in calcimycin stimulated plasma (aged mice; 4 weeks of dosing, without LPS): significant reduction in LTB4 levels
BBB leakiness (sodium fluorescein in brain) (aged mice; aged mice, 4 weeks treatment then acute high dose LPS): trend towards reduced BBB leakiness
blood levels of Compound 1 [3, 4]: sustained and detectable in plasma and blood for up to 24 hours
brain levels of Compound 1 [3, 4]: sustained and detectable for up to 24 hours
plasma levels of Compound 1 [3, 4]: sustained and detectable in plasma and blood for up to 24 hours
calcimycin stimulated plasma LTB4 levels (LTA4H hydrolase activity; single 1 mg/kg oral dose, multiple timepoints, C57BL/6 mice): reduction in the pharmacodynamic readout of calcimycin stimulated plasma LTB4 levels
plasma LTB4 levels, dose response (LTA4H hydrolase activity; single dose 0.3, 0.1 or 0.03 mg/kg, 6 hours post dosing): dose response in the pharmacodynamic readout of plasma LTB4 levels
